According to patent US20070218189A1, “Reduction inhibitory agent for active oxygen eliminating-activity” (KABUSHIKI KAISHA HAYASHIBARA SEIBUTSU KAGAKU KENYUJO, priority 2001, published 2007):

Experiments:
Format in all cases: biochemical
[1] = system: superoxide, formed in a xanthine-xanthine oxidase system; test: Active oxygen eliminating activity of powdery carrot compositions with saccharides before and after storage, nitro blue tetrazolium (NBT) test (Experiment 3)
Description: (§1) Fresh raw carrots were disrupted by a mixer, and saccharides were respectively added to the mixture and dissolved therein to give a concentration of 10%, d.s.b. The solutions were dried under a reduced pressure at 40° C. for two days, dried in vacuo at the same temperature for 24 hours, and pulverized by a mixer into powdery carrot compositions. […] An about 100 g each of the compositions was placed and sealed in a 500-ml polystyrene container, and stored at 40° C. for seven days. The active oxygen eliminating activities of the compositions before and after storage were compared with each other. The active oxygen eliminating activity was assayed by the nitro blue tetrazolium (NBT) test by Toshio IMANARI et al. in Igakuno Ayumi, Vol. 101, pp. 496-497 (1977), and the level of superoxide, formed in a xanthine-xanthine oxidase system, was assayed by quantifying calorimetrically the content of formazan formed by reducing NBT. As a control, refined water was used as a test solution. One unit activity of active oxygen eliminating activity was defined as that inhibited 50% formazan formation as compared with the control. […] Thus cyclotetrasaccharide is preferable as an effective ingredient for a reduction inhibitory agent for active oxygen eliminating activity.

active oxygen = test: Active oxygen eliminating activity of superoxide dismutase and antioxidants in cyclotetrasaccharide solution or water before and after storage (Experiment 7); details: 30% (w/v) cyclotetrasaccharide solution; superoxide dismutase, α-glucosyl hesperidin, α-glucosyl rutin, gallic acid, catechin; in words
Description: In one milliliter of 30% (w/v) cyclotetrasaccharide solution, which is prepared by using cyclotetrasaccharide obtained in Experiment 2, was dissolved five micrograms (μ g) of superoxide dismutase from a horseradish commercialized by Sigma Chemical Co., St. Louis, USA, 10 mg of α-glucosyl hesperidin commercialized by Hayashibara Biochemical Laboratories, Inc., Okayama Japan, 10 mg of α-glucosyl rutin commercialized by Hayashibara Biochemical Laboratories, Inc., Okayama, Japan, 250 μg of gallic acid commercialized by Wako Pure Chemical Industries, Ltd., Tokyo, Japan, or 50 μg of catechin to obtain a liquid composition. Each of the compositions was placed in a glass test tube, sealed with a rubber cap, and stored under a dark condition. As a control, water was used in place of the cyclotetrasaccharide solution.

[2] = system: superoxide, formed in a xanthine-xanthine oxidase system; test: Influence of cyclotetrasaccharide concentration on active oxygen eliminating activity of powdery carrot compositions, NBT test (Experiment 5); details: for Activity (unit/g) After storage / Percentage of residual activity (%): 40° C. seven days
Description: as §1
Similarly as in Experiment 3, cyclotetrasaccharide was respectively mixed with and dissolved in disrupted carrots to give concentrations of 0-20%, d.s.b. The resulting mixtures were dried in vacuo at 40° C. for 24 hours, and pulverized into powdery carrot compositions. Similarly as in Experiment 3, each powdery composition was placed and sealed in a polystyrene container, and stored at 40° C. for seven days for evaluating the reduction inhibitory activity for active oxygen activity. The active oxygen eliminating activity of one gram each of powdery compositions before and after storage was measured by the method in Experiment 3.

[3] = system: superoxide, formed in a hypoxanthine-xanthine oxidase system; test: Active oxygen eliminating activity of powdery carrot compositions with saccharides before and after storage, electron spin resonance (ESR) test (Experiment 4)
Description: Fresh raw carrots were disrupted as Experiment 3, and saccharides were respectively added to the mixture and dissolved therein to give a concentration of 10%, d.s.b. The solutions were dried under a reduced pressure at 40° C. for one day, dried in vacuo at the same temperature for 17 hours, and pulverized by a mixer into powdery carrot compositions. […] About 100 g each of the compositions was placed and sealed in a 500-ml polystyrene container, and stored at 40° C. for seven or fourteen days. The active oxygen eliminating activities of the compositions before and after storage were compared with each other. The active oxygen eliminating activity was assayed by the electron spin resonance (ESR) test by Toshihiko OZAWA in BUNSEKI, Vol. 2, pp. 68-74 (2000), and the level of superoxide, formed in a hypoxanthine-xanthine oxidase system, was assayed by the spin-trapping with 5,5-dimethyl-1-pyrroline-N-oxide in ESR.

[4] = system: superoxide, formed in a xanthine-xanthine oxidase system; test: Active oxygen eliminating activity of powdery vegetable compositions with or without cyclotetrasaccharide before and after storage (Experiment 6); details: carrot, onion, Japanese radish, cabbage, spinach, cucumber, pumpkin; in words
[5] = powdery carrot composition, saccharide added at 10% d.s.b., stored at 40° C. for seven days
[6] = 0.1% cyclotetrasaccharide added to carrot (content 1.0% d.s.b.)
[7] = 0.5% cyclotetrasaccharide added to carrot (content 4.9% d.s.b.)
[8] = 1.0% cyclotetrasaccharide added to carrot (content 9.4% d.s.b.)
[9] = 2.5% cyclotetrasaccharide added to carrot (content 20.7% d.s.b.)
[10] = 5.0% cyclotetrasaccharide added to carrot (content 34.2% d.s.b.)
[11] = 10.0% cyclotetrasaccharide added to carrot (content 51.1% d.s.b.)
[12] = 20.0% cyclotetrasaccharide added to carrot (content 67.6% d.s.b.)

Compound: OCC1OC2OCC3O[C@H](O[C@H]4C(O)C(CO)OC(OCC5O[C@H](O[C@@H](C1O)C2O)C(O)C(O)[C@@H]5O)C4O)C(O)C(O)[C@@H]3O (stereo partly drawn) [Cyclotetrasaccharide, cyclo{→6)-α-D-glucopyranosyl-(1→3)-α-D-glucopyranosyl-(1→6)-α-D-glucopyranosyl-(1→3)-α-D-glucopyranosyl-(1→}]
- Activity (unit/g) After storage [1, 5]: 390 unit/g
- Percentage of residual activity (%) [1, 5]: 66%
- Activity (unit/g) Before storage ([1]; powdery carrot composition, saccharide added to disrupted carrots at 10% d.s.b., before storage): 590 unit/g
- residual percentage / reduction inhibitory activity for active oxygen eliminating activity among the saccharides tested ([1]; powdery carrot compositions, 40° C. seven days, in words): highest residual percentage
- reducing inhibitory activity for active oxygen eliminating activity of plant antioxidants (active oxygen): effective reducing inhibitory activity
- Activity (unit/g) After storage [2, 6]: 390 unit/g
- Percentage of residual activity (%) [2, 6]: 42%
- Activity (unit/g) Before storage [2, 6]: 930 unit/g
- Activity (unit/g) After storage [2, 7]: 470 unit/g
- Percentage of residual activity (%) [2, 7]: 57%
- Activity (unit/g) Before storage [2, 7]: 820 unit/g
- Activity (unit/g) After storage [2, 8]: 450 unit/g
- Percentage of residual activity (%) [2, 8]: 61%
- Activity (unit/g) Before storage [2, 8]: 740 unit/g
- Activity (unit/g) After storage [2, 9]: 460 unit/g
- Percentage of residual activity (%) [2, 9]: 66%
- Activity (unit/g) Before storage [2, 9]: 700 unit/g
- Activity (unit/g) After storage [2, 10]: 340 unit/g
- Percentage of residual activity (%) [2, 10]: 62%
- Activity (unit/g) Before storage [2, 10]: 550 unit/g
- Activity (unit/g) After storage [2, 11]: 290 unit/g
- Percentage of residual activity (%) [2, 11]: 69%
- Activity (unit/g) Before storage [2, 11]: 420 unit/g
- Activity (unit/g) After storage [2, 12]: 280 unit/g
- Percentage of residual activity (%) [2, 12]: 64%
- Activity (unit/g) Before storage [2, 12]: 390 unit/g
- Activity (unit/g) Before storage ([3]; powdery carrot composition, saccharide added at 10% d.s.b., before storage): 186 unit/g
- Activity (unit/g) After two weeks storage ([3]; powdery carrot composition, stored at 40° C. for fourteen days): 66 unit/g
- percentage of residual activity After two weeks storage ([3]; powdery carrot composition, stored at 40° C. for fourteen days, numerals in parentheses): 36%
- Activity (unit/g) After one week storage ([3]; powdery carrot composition, stored at 40° C. for seven days): 88 unit/g
- percentage of residual activity After one week storage ([3]; powdery carrot composition, stored at 40° C. for seven days, numerals in parentheses): 47%
- residual percentage for active oxygen eliminating activity among the saccharides tested ([3]; powdery carrot compositions, in words): highest residual percentage
- reduction inhibitory activity for active oxygen eliminating activity by incorporating cyclotetrasaccharide [4]: observed in many vegetables
